This is an account of results in patent US20230106506A1, “NOVEL PqsR INVERSE AGONISTS” (Helmholtz-Zentrum Fur Infektionsforschung GmbH, priority 2020, published 2023).

The structures appear in SMILES notation. Where two headings read alike, the source gives them in different places.

Data set [1] relates to P. aeruginosa pyocyanin production. As to conditions: in cellulo, literature value; read-out: inhibition of virulence factor pyocyanin production: IC50; cited from earlier work.
Data set [2] concerns production of signal molecules HHQ and PQS. The note with it: cited from earlier work.
Data set [3] relates to P. aeruginosa pyocyanin production. In words: Pyocyanin assay. It counts as cell-based, P. aeruginosa strain PA14. The note with it: Pseudomonas aeruginosa, PA14, 16 h, read-out: IC50-value towards pyocyanin production. Summed up:
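PA14 washed overnight culture in PPGAS diluted to OD600 0.02, grown 16 h with compound (37 °C, 200 rpm, 75% RH). Pyocyanin extracted with chloroform, back-extracted into 0.2 M HCl. OD520 measured and normalised to OD600.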

Data set [4] is described as follows: Kinetic turbidimetric aqueous solubility. It counts as physicochemical. As to conditions: aqueous buffer, kinetic from dmso stock; PBS buffer, final DMSO 2%, absorbance 620 nm; read-out: Kinetic Turbidimetric Aqueous Solubility at room temperature for 5 min. On the procedure: Kinetic Turbidimetric Aqueous Solubility at room temperature for 5 min. […] Data was analyzed by fitting a four parameter sigmoidal function to the measured and normalized absorbances and AUC calculation providing access to Log S (decadic logarithm of the solubility).

The nature of data set [5]: Metabolic stability in mouse liver microsomes (MLM). The note with it: 1 μM compound, 0.5 mg/mL MLM, 1 mM NADPH, 37° C., read-out: half-life (t1/2) towards MLM. It counts as in vitro ADME. A digest of the protocol: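 Phase I stability: 1 μM compound incubated at 37° C with 0.5 mg/mL mouse liver microsomes and 1 mM NADPH, sampled at 0-30 min and quenched in acetonitrile. Remaining parent measured by HPLC-MS/MS to derive half-life.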
In general terms: Liver microsomes are vesicles of endoplasmic reticulum, rich in cytochrome P450 enzymes.

A further data set deals with T1, PqsR (Pseudomonas aeruginosa, UniProt Q9I4X0).
T1 construct: transfected with pEAL08-2 plasmid encoding pqsR under control of promoter tac; expressed in transfected cells; host or cells: Escherichia coli DH5alpha carrying pEAL08-2
T1 sequence (Q9I4X0 whole entry): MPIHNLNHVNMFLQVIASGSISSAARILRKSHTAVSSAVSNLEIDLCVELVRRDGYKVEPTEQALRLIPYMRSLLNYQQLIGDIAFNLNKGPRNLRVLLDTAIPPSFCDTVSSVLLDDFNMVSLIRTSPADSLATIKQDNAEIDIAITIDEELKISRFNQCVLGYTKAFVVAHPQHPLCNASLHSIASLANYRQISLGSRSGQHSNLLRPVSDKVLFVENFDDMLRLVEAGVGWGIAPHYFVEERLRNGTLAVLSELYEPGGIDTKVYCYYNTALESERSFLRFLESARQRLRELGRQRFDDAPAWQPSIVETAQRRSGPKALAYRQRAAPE
Description: PqsR reporter gene assay in E. coli (β-galactosidase). It counts as cell-based. On the procedure: Inhibition of pqsR-dependent gene expression of test compounds was determined in an E. coli based β-galactosidase reporter gene assay. Escherichia coli DH5α was transfected with pEAL08-2 plasmid encoding pqsR under control of promoter tac and β-galactosidase reporter gene lacZ under control of promoter pqsA. Antagonistic effects of compounds were evaluated in the presence of/in competition to 50 nM PQS. A positive control was used to ensure the reliability of individual assays. First, PQS was diluted in methanol and added to the wells of a glass coated 96-deep-well plate, and the solvent was evaporated. Then, compounds were added in 5 μL DMSO to final concentrations of 0.001-10 μM. Overnight cultures of E. coli DH5a×pEAL08-2 were diluted 1:100 in LB medium with ampicillin (50 μg/ml) and incubated at 37° C. with shaking until it reached an OD600 of 0.2. Finally, 995 μL of culture was added to each well and the β-galactosidase activity was determined by ortho-nitrophenyl-β-galactoside conversion in permeabilized cells after a 2.5 h incubation period (37° C., 180 rpm). OD600, OD420, and OD550 were measured using POLARstar Omega (BMG Labtech, Ortenberg, Germany), and the activity was expressed as ratio of the slope of β-galactosidase activity between basal control (no PQS) and solvent control, IC50 values of antagonists were determined by variation of the concentration of the test compounds.
A general note: Reporter assays use an easily measured gene product as a stand-in for the process of interest.

Data set [6] has as its system virulence factor elastase. The note with it: cited from earlier work.

On to `CCCCCCCc1[nH]c2ccc([N+](=O)[O-])cc2c(=O)c1C(N)=O` [2-heptyl-6-nitro-4-oxo-1,4-dihydroquinoline-3-carboxamide], for which the IC50 in data set [1] was 2000 nM. Further, in data set [2] (at 15 μM), the “reduction of HHQ production” value was 54% and the “reduction of PQS production” value is recorded as 37%.
For the molecule `Nc1cccc(F)c1C(=O)O` [Compound 6FABA], the half-inhibitory concentration (IC50) in data set [2] (QS inhibitor targeting the enzyme PqsA) was around 100000 nM.
With `CC(C)Oc1ccc(-c2ncc(CNc3cc(-n4cncn4)nc(C(F)(F)F)c3)s2)cc1` [Compound 17, N-((2-(4-Isopropoxyphenyl)thiazol-5-yl)methyl)-2-(1H-1,2,4-triazol-1-yl)-6-(trifluoromethyl)pyridin-4-amine], the IC50 in data set [3] was at most 100 nM; at PqsR, 51 to 250 nM. In addition, the solubility at 5 min in data set [4] is above 50 µM. Also, the half-life at 1 µM in data set [5] lay in the range of 1.02 to 1.67 h.
Regarding `CC(C)Oc1ccc(-c2ncc(CNc3cc(-c4cn[nH]c4)nc(C(F)(F)F)c3)cn2)cc1Cl` [Compound 48, N-((2-(3-Chloro-4-isopropoxyphenyl)pyrimidin-5-yl)methyl)-2-(1H-pyrazol-4-yl)-6-(trifluoromethyl)pyridin-4-amine], the results for the IC50 (in data set [3]; against PqsR) were 101 to 200 nM and at most 50 nM, respectively. In addition, the solubility at 5 min in data set [4] was above 25 µM. The half-life at 1 µM in data set [5] is above 1.67 h.
Take `COC(=O)c1ccccc1N` [methyl anthranilate]: in data set [6], the “inhibition of production of the virulence factor elastase, active concentration” value is reported as “millimolar concentrations”. In addition, in data set [2], the “inhibition of PQS formation, active concentration” value was “millimolar concentrations”.

A word on the IC50: it is the concentration that inhibits the measured activity by half. The term solubility denotes the dissolved amount per volume that the medium holds.
